PMC6017698 (Molecules : A Journal of Synthetic Chemistry and Natural …, 2018)
Like-named read-outs stand apart in the source and are kept apart here.

Assays:
in vitro = settings: PAMPA
Protocol: (§1) The brain permeability (Pe) of the target compounds was determined in vitro using the parallel artificial membrane permeation assay for blood-brain barrier penetration described by Di et al. [41], employing a lipid extract of porcine brain membrane in a mixture of PBS/EtOH 70:30.

[1] = for PAMPA-BBB prediction of BBB permeation: class from Pe value
Protocol: as §1

human recombinant AChE = biological target: T1, human recombinant AChE (Homo sapiens, UniProt P22303); experiment: biochemical; type: biochemical; settings: for IC50: human recombinant AChE; for selectivity for hAChE over hBChE inhibition: ratio of hBChE and hAChE IC50; for fold more potent hAChE inhibitor than pyridostigmine: relative to pyridostigmine
T1 construct: purchased Sigma, Milan, Italy
T1 sequence (P22303 32-614): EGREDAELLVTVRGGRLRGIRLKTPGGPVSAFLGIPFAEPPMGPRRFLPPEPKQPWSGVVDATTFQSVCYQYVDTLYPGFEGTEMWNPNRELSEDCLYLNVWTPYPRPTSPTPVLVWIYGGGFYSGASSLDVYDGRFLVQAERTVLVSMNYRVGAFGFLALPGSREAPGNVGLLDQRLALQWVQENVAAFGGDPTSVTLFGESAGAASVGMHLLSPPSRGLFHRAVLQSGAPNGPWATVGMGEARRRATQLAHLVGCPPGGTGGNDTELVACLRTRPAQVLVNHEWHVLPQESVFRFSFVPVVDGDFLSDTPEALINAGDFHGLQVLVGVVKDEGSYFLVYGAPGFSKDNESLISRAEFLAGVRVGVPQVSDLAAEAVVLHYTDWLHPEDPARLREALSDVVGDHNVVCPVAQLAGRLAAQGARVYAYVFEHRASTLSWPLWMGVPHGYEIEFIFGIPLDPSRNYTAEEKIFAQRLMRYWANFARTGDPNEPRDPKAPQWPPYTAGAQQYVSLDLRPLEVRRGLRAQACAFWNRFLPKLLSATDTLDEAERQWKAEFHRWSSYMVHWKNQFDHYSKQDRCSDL

human serum BChE = human serum BChE (Homo sapiens, UniProt P06276); experiment: biochemical
Chain of human serum BChE (P06276 29-602): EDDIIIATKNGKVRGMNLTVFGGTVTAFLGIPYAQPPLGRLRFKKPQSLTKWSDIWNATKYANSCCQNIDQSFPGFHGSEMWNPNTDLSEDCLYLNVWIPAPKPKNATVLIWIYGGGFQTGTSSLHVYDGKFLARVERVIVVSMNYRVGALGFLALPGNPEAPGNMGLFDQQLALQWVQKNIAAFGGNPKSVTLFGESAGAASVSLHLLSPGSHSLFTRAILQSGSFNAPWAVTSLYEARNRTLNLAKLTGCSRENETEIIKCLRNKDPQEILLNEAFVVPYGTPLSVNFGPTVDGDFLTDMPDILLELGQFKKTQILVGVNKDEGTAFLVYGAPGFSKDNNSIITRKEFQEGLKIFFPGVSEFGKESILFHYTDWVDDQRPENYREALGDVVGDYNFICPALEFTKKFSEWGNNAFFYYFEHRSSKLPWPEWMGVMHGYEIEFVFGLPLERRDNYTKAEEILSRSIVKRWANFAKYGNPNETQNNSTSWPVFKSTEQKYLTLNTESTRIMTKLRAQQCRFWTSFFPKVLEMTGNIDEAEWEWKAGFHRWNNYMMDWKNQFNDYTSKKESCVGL

[2] = commercial drugs used for assay validation; cited from earlier work
[3] = mean ± SEM of at least three experiments, each in duplicate, read-out: hAChE IC50
[4] = mean ± SEM of at least three experiments, each in duplicate, read-out: hBChE IC50

| SMILES | Papp (in vitro; pig) [×10⁻⁶ cm/s] | PAMPA-BBB prediction of BBB permeation [1] | IC50 (human recombinant AChE; [3]) [nM] | IC50 (human serum BChE; [4]) [nM] | further results |
| --- | --- | --- | --- | --- | --- |
| Nc1c2c(nc3cc(Cl)ccc13)CCCC2 [6-chlorotacrine, reference compound] | 19.8 ± 0.4 | CNS+ (High BBB permeation (CNS+) is expected for compounds with Pe > 5.19) | – | – | – |
| C[n+]1c2c(c(N)c3ccccc31)CCCC2.[I-] [Compound 4, 9-Amino-1,2,3,4-tetrahydro-10-methylacridin-10-ium iodide] | – | CNS− (low BBB permeation (CNS−) is expected for compounds with Pe < 2.07) | 12000 ± 1000 | 2850 ± 190 | Papp (in vitro): 1.7 ± 1.5 ×10⁻⁶ cm/s |
| C[n+]1c2c(c(N)c3ccc(Cl)cc31)CCCC2.[I-] [Compound 5, 9-Amino-6-chloro-1,2,3,4-tetrahydro-10-methylacridin-10-ium iodide] | – | CNS− (low BBB permeation (CNS−) is expected for compounds with Pe < 2.07) | 2450 ± 280 | 22300 ± 1500 | Papp (in vitro): 1.2 ± 0.8 ×10⁻⁶ cm/s |
| CC1=CC2Cc3c(c(N)c4ccc(Cl)cc4[n+]3C)C(C1)C2.[I-] (centres unmarked) [Compound 6, 12-Amino-3-chloro-6,7,10,11-tetrahydro-5,9-dimethyl-7,11-methanocycloocta[b]quinolin-5-ium iodide] | – | CNS+ (High BBB permeation (CNS+) is expected for compounds with Pe > 5.19) | – | – | Papp (in vitro): 10.9 ± 1.5 ×10⁻⁶ cm/s; PAMPA-BBB Pe ([1]; PBS/EtOH 70:30, mean of three independent experiments ± SD): 10.90 10^−6 cm/s |
| OCCc1cn(CCNc2c3c(nc4ccccc24)CCCC3)nn1 [Compound 9, 2-{1-[2-(1,2,3,4-Tetrahydroacridin-9-ylamino)ethyl]-1H-1,2,3-triazol-4-yl}ethanol] | 0.03 ± 0.001 | CNS− (low BBB permeation (CNS−) is expected for compounds with Pe < 2.07) | 1730 ± 120 | 170 ± 10 | – |
| OCCc1cn(CCNc2c3c(nc4cc(Cl)ccc24)CCCC3)nn1 [Compound 10, 2-{1-[2-(6-Chloro-1,2,3,4-tetrahydroacridin-9-ylamino)ethyl]-1H-1,2,3-triazol-4-yl}ethanol] | 0.02 ± 0.001 | CNS− (low BBB permeation (CNS−) is expected for compounds with Pe < 2.07) | 200 ± 10 | 3250 ± 170 | selectivity for hAChE over hBChE inhibition (human recombinant AChE): 16; fold more potent hAChE inhibitor than pyridostigmine (human recombinant AChE): 7 fold |
| COc1cc(CNC(=O)Cc2cn(CCNc3c4c(nc5ccccc35)CCCC4)nn2)ccc1O [Compound 15, N-[4-(hydroxy)-3-methoxybenzyl]-2-{1-[2-(1,2,3,4-tetrahydroacridin-9-ylamino)ethyl]-1H-1,2,3-triazol-4-yl}acetamide] | 0.03 ± 0.001 | CNS− (low BBB permeation (CNS−) is expected for compounds with Pe < 2.07) | 250 ± 10 | 50 | IC50 (human serum BChE; values given in nM (table footnotes), read-out: IC50 hBChE): 54.8 nM |
| COc1cc(CNC(=O)Cc2cn(CCNc3c4c(nc5cc(Cl)ccc35)CCCC4)nn2)ccc1O [Compound 16, 2-{1-[2-(6-Chloro-1,2,3,4-tetrahydroacridin-9-ylamino)ethyl]-1H-1,2,3-triazol-4-yl}-N-[4-(hydroxy)-3-methoxybenzyl]acetamide] | 2.97 ± 0.61 | CNS± | 10 | 290 ± 10 | IC50 (human recombinant AChE; values given in nM (table footnotes, text), read-out: IC50 hAChE): 7.18 nM; selectivity for hAChE over hBChE inhibition (human recombinant AChE): 40; fold more potent hAChE inhibitor than pyridostigmine (human recombinant AChE): 192 fold |
| CCn1cc(C(=O)O)c(=O)c2cc(F)c(N3CCNCC3)cc21 [Norfloxazin, reference compound] | – | – | – | – | Experimental Pe ([1]; commercial drugs used for assay validation, mean ± SD of three independent experiments): 0.9 ± 0.1 10^−6 cm s^−1 |
| CN1C(C(=O)Nc2ccccn2)=C(O)c2ccccc2S1(=O)=O [Piroxicam] | – | – | – | – | Reported Pe [2]: 2.5 10^−6 cm s^−1 |
| CN(C)CCCN1c2ccccc2Sc2ccccc21 [Promazine] | – | – | – | – | Reported Pe [2]: 8.8 10^−6 cm s^−1 |
